Results published in patent publication US20120122727A1, “IN VITRO METHOD FOR PREDICTING WHETHER A COMPOUND IS GENOTOXIC IN VIVO” (priority 2009, published 2012).

Assays:
[1] = in vivo; cited from earlier work
[2] = tested on: primary mouse hepatocytes
[3] = tested on: primary mouse hepatocytes; assay: Gene expression (Affymetrix Mouse Genome 430 2.0) in primary mouse hepatocytes, true vs false GTX, 24 h and 48 h

## Oc1cccc2cccnc12 [8Q, 8-Hydroxyquinoline]
[1]
  GTX in vivo: −
[2]
  Gene expression data AF204959 (Cyp3a25 /// LOC622249): −0.4178
[3]
  Gene expression AA561726 average: 0.1739
  Gene expression AF000969 average: −0.1809
  Gene expression AF022072 average: 0.0814
  Gene expression AF033112 average: −0.01703
  Gene expression AF055573 average: −0.09457
  Gene expression AF069954 average: 0.1841
  Gene expression AF297615 average: −0.009333
  Gene expression AF335325 average: 0.1418
  Gene expression AI594683 average: 0.1235
  Gene expression AI747296 average: −0.0009667
  Gene expression AK005731 average: −0.03997
  Gene expression AK007854 average: 0.05973
  Gene expression AK010447 average: 0.06223
  Gene expression AK010738 average: 0.3608
  Gene expression AK014608 average: −0.2447
  Gene expression AK017734 average: 0.0878
  Gene expression AK018383 average: 0.0679
  Gene expression AK019979 average: −0.2154
  Gene expression AV095209 average: 0.2602
  Gene expression AV141095 average: −0.1725
  Gene expression AV173869 average: −0.02557
  Gene expression AV216768 average: 0.1679
  Gene expression AV219418 average: 0.4492
  Gene expression AV221299 average: 0.1454
  Gene expression AV246296 average: −0.1136
  Gene expression AV251625 average: 0.03813
  Gene expression AV254764 average: 0.02403
  Gene expression AV327248 average: 0.1176
  Gene expression BB009155 average: 0.006467
  Gene expression BB027848 average: −0.06607
  Gene expression BB043558 average: −0.2347
  Gene expression BB046347 average: 0.1608
  Gene expression BB140436 average: 0.2861
  Gene expression BB204486 average: 0.1305
  Gene expression BB223872 average: 0.05753
  Gene expression BB246912 average: 0.3325
  Gene expression BB275142 average: 0.0112
  Gene expression BB458460 average: 0.1317
  Gene expression BB463610 average: −0.2369
  Gene expression BB730977 average: 0.3298
  Gene expression BB743970 average: 0.1936
  Gene expression BB770528 average: −0.01823
  Gene expression BB781615 average: −0.006367
  Gene expression BC003284 average: 0.09
  Gene expression BC004827 average: −0.07043
  Gene expression BC005552 average: 0.1343
  Gene expression BC006713 average: −0.1035
  Gene expression BC010318 average: 0.0565
  Gene expression BC012247 average: −0.006933
  Gene expression BC012955 average: −0.3049
  Gene expression BC013893 average: −0.1654
  Gene expression BC017615 average: −0.4904
  Gene expression BC019379 average: −0.1555
  Gene expression BC019882 average: −0.1719
  Gene expression BC021352 average: 0.4721
  Gene expression BC022148 average: 0.04497
  Gene expression BC025169 average: 0.02213
  Gene expression BC026131 average: −0.0852
  Gene expression BC027026 average: 0.2479
  Gene expression BC027121 average: −0.1207
  Gene expression BC027185 average: −0.1209
  Gene expression BE956581 average: 0.403
  Gene expression BF719766 average: −0.2717
  Gene expression BG065754 average: −0.0909
  Gene expression BG066491 average: −0.1771
  Gene expression BG076151 average: −0.1887
  Gene expression BG076333 average: −0.05333
  Gene expression BG797099 average: 0.0658
  Gene expression BG967046 average: −0.09257
  Gene expression BI651416 average: 0.06777
  Gene expression BI966443 average: 0.1335
  Gene expression BM198879 average: −0.05617
  Gene expression BM200015 average: 0.08087
  Gene expression BM230508 average: 0.07603
  Gene expression BM936480 average: 0.0483
  Gene expression BQ174991 average: −0.1546
  Gene expression L21027 average: 0.2905
  Gene expression NM_007556 average: 0.0638
  Gene expression NM_007980 average: −0.5064
  Gene expression NM_007987 average: 0.03487
  Gene expression NM_008522 average: 0.0486
  Gene expression NM_008935 average: 0.4082
  Gene expression NM_009897 average: 0.111
  Gene expression NM_011075 average: 0.1618
  Gene expression NM_011176 average: 0.1358
  Gene expression NM_011316 average: 0.06377
  Gene expression NM_012006 average: 0.5806
  Gene expression NM_013642 average: 0.2659
  Gene expression NM_013738 average: −0.305
  Gene expression NM_013929 average: 0.033
  Gene expression NM_018881 average: −0.1679
  Gene expression NM_019738 average: −0.9543
  Gene expression NM_030697 average: −0.0261
  Gene expression NM_053122 average: −0.142
  Gene expression NM_134147 average: −0.1757
  Gene expression NM_134188 average: −0.07067
  Gene expression X62701 average: 0.154
  Gene expression data AF000969 (Cadps2): −0.3717
  Gene expression data AF022072 (Grb10): −0.4275
  Gene expression data AF065917 (Lif): −0.2101
  Gene expression data AF297615 (Ggta1): −0.0684
  Gene expression data AI594683 (Dmn): −0.09783
  Gene expression data AI596632 (Ptprg /// LOC632664): −0.227
  Gene expression data AI987929 (Ndrg1): 0.4414
  Gene expression data AK004419 (Fbxl17): 0.01113
  Gene expression data AK005731 (1700007K13Rik): 0.1143
  Gene expression data AK007766 (1810044A24Rik): −0.0226
  Gene expression data AK007854 (1810053B23Rik): −0.076
  Gene expression data AK009736 (Gpr137b /// LOC664862 /// LOC673335): 0.5337
  Gene expression data AK010447 (Smyd3): 0.07697
  Gene expression data AK014608 (4632434l11Rik): −0.1225
  Gene expression data AK019979 (2610528E23Rik): 0.08447
  Gene expression data AV095209 (Mthfd1l): 0.1564
  Gene expression data AV141095 (1110033M05Rik): −0.07047
  Gene expression data AV173571 (1700106N22Rik): 0.04197
  Gene expression data AV219418 (Ldhb): 0.0363
  Gene expression data AV223474 (Zdhhc14): −0.06957
  Gene expression data AV298304 (Homez): −0.03607
  Gene expression data AV327248 (Zfp365 /// LOC674611): −0.082
  Gene expression data AV377066 (9130221J18Rik): −0.3212
  Gene expression data AW240761 (Tbc1d5): −0.2006
  Gene expression data AW543460 (Pard3): −0.0366
  Gene expression data AW543723: −0.0994
  Gene expression data AW986246 (Maoa): 0.3198
  Gene expression data BB027848 (4732466D17Rik): −0.2807
  Gene expression data BB043558 (9230114K14Rik): −0.3734
  Gene expression data BB275142 (AW456874): −0.02507
  Gene expression data BB308836 (Ppm1l): 0.2558
  Gene expression data BB318221 (Zdhhc14): 0.1138
  Gene expression data BB463610 (4632434l11Rik): −0.2188
  Gene expression data BB526605 (Mipol1): −0.01453
  Gene expression data BB770528 (Rai2): 0.1386
  Gene expression data BB821363 (Scfd2): 0.1765
  Gene expression data BC004827 (Psat1): −0.1011
  Gene expression data BC008626 (Icam1): −0.4422
  Gene expression data BC010462 (BC010462): 0.05663
  Gene expression data BC012247 (Dcxr): −0.0122
  Gene expression data BC012260 (Psmf1): 0.2545
  Gene expression data BC015270 (Hist2h3c2): −0.03353
  Gene expression data BC016073 (Cdkal1): −0.05183
  Gene expression data BC016265 (Ube2e2): −0.2547
  Gene expression data BC019882 (Acaa1b): 0.0605
  Gene expression data BC025501 (Aaas): 0.1979
  Gene expression data BC025837 (Sbk1): −0.04227
  Gene expression data BC025915 (Cova1): −0.02643
  Gene expression data BC026422 (Tgm1): 0.2873
  Gene expression data BF719766 (Thyn1): −0.1935
  Gene expression data BG065754 (Ccng1): −0.2279
  Gene expression data BG066903 (Kif16b): −0.1277
  Gene expression data BG069873 (Gnb1l): −0.04763
  Gene expression data BG070887 (Gtdc1): −0.04273
  Gene expression data BG076151 (Ppm1d): 0.07243
  Gene expression data BG261907 (Large): −0.1486
  Gene expression data BI651416 (Cdc42bpg): 0.1364
  Gene expression data BI660702 (Ell3): 0.05113
  Gene expression data BM198879 (Ercc5): −0.006767
  Gene expression data BM230508 (A030007D23Rik): 0.03497
  Gene expression data NM_007987 (Fas): −0.05523
  Gene expression data NM_008522 (Ltf): −0.05963
  Gene expression data NM_008576 (Abcc1): 0.106
  Gene expression data NM_011176 (St14): 0.05783
  Gene expression data NM_011316 (Saa4): 0.0831
  Gene expression data NM_012006 (Acot1): −0.2532
  Gene expression data NM_013866 (Zfp385): 0.05893
  Gene expression data NM_018770 (Igsf4a): 0.1391
  Gene expression data NM_021451 (Pmaip1): −0.5295
  Gene expression data NM_025770 (Atg10): −0.1372
  Gene expression data NM_028803 (Gbe1): −0.04593
  Gene expression data NM_030697 (Ankrd47): 0.2204
  Gene expression data NM_053168 (Trim11): −0.0493
  Gene expression data NM_134188 (Acot2): −0.2881
  Gene expression data Y15910 (Diap2): −0.2692
